From the Kinase Knowledgebase extract (Sharma et al. 2016) come the findings set out here.

Molecules are shown by their SMILES.

The experiment concerns the target CDK2 (human) (UniProt P24941). In words: Enzyme Assay.
With `O=C(Nc1ccccc1)c1ccc(C(=O)Nc2ccc(-n3cncn3)cc2)o1`, the IC50 (commonly the midpoint of a concentration-inhibition curve) is 1 to 40 µM.

Compound `O=C(Nc1ccc(-n2cncn2)cc1)c1ccc(C(=O)N2CCCC2c2cccnc2)s1` (configuration not stated) had an IC50 of at least 40 µM. The compound `COc1ccc(NC(=O)c2ccc(C(=O)Nc3ccc(-n4cncn4)cc3)s2)c(C)c1` gave an IC50 of at most 1 µM. The result for `Cc1cc(CNC(=O)c2ccc(C(=O)Nc3ccc(-n4cncn4)cc3)s2)no1` reads at least 40 µM; that for `C[C@@H](NC(=O)c1ccc(C(=O)Nc2ccc(-n3cncn3)c(F)c2)o1)C1CCCCC1`, 1 to 40 µM; that for `O=C(Nc1ccc(-n2cncn2)cc1)c1ccc(C(=O)Nc2ccccc2Cl)s1`, at least 40 µM. With `COc1ccc(C(=O)Nc2ccc(C(=O)N3CCC(Oc4cnccn4)CC3)o2)c(C)c1`, the IC50 was at least 40 µM. The result for `COc1ccc(NC(=O)c2ccc(C(=O)Nc3ccc(-n4cncn4)cc3)s2)cc1O` reads at least 40 µM; that for `NS(=O)(=O)c1ccc(NC(=O)c2ccc(C(=O)Nc3ccc(-n4cncn4)cc3)s2)cc1`, at least 40 µM.

As to `O=C(NC[C@@H]1CCCO1)c1ccc(C(=O)Nc2ccc(-n3cncn3)cc2)s1`, the IC50 is at least 40 µM. `COc1ccc(NC(=O)c2ccc(C(=O)Nc3ccc(N4CCOCC4)cc3)s2)c(C)c1` displayed an IC50 of at least 40 µM. In the case of `O=C(Nc1ccc(-n2cncn2)cc1)c1ccc(C(=O)N[C@@H]2CC3CCC2C3)s1` (some centres not stated), the IC50 was at least 40 µM. The figure for `Cc1cc(C)nc(NC(=O)c2ccc(C(=O)Nc3ccc(-n4cncn4)cc3)s2)c1` is at least 40 µM; for `COc1ccc(NC(=O)c2ccc(C(=O)Nc3ccc(-n4cccn4)cc3)s2)c(C)c1` it is at least 40 µM; for `COc1ccc(C(=O)Nc2ccc(C(=O)Nc3ccc(-c4nc[nH]n4)c(F)c3)s2)c(C)c1` it is at most 1 µM. Compound `O=C(Nc1ccc(-n2cncn2)cc1)c1ccc(NC(=O)C2CCCCC2)s1` came in with an IC50 of at most 1 µM. For the compound `O=C(Nc1ccc(-n2cncn2)c(F)c1)c1ccc(C(=O)Nc2ccccc2Cl)s1`, the IC50 is at most 1 µM. Regarding `O=C(NCc1nc2ccccc2[nH]1)c1ccc(C(=O)Nc2ccc(-n3cncn3)cc2)s1`, the IC50 was at least 40 µM. As for `COc1ccc(NC(=O)c2ccc(C(=O)Nc3cccc(-c4cnco4)c3)s2)c(C)c1`, the IC50 is at least 40 µM. The figure for `O=C(Nc1ccc(-n2cncn2)cc1)c1ccc(C(=O)N[C@@H]2CCNC2)s1` is at least 40 µM; for `COc1ccc(NC(=O)c2ccc(C(=O)Nc3ccc(C#N)cc3)s2)c(C)c1` it is at least 40 µM; for `O=C(Nc1ccc(-n2cncn2)cc1)c1ccc(NC(=O)C2CCCCC2)o1` it is at least 40 µM. `Cn1c(NC(=O)c2ccc(C(=O)Nc3ccc(-n4cncn4)cc3)s2)nc2ccccc21`: the IC50 is at least 40 µM. The figure for `CC(C)CNC(=O)c1ccc(C(=O)Nc2ccc(-n3cncn3)cc2)s1` is at least 40 µM; for `Cc1cc(CN(C)C)ccc1NC(=O)c1ccc(C(=O)Nc2ccc(-n3cncn3)c(F)c2)s1` it is 1 to 40 µM; for `COc1cccc(NC(=O)c2ccc(C(=O)Nc3ccc(-n4cncn4)cc3)s2)c1OC` it is 1 to 40 µM.

For `Cc1cc(CN2CCN(C)CC2)ccc1NC(=O)c1ccc(C(=O)Nc2ccc(-n3cncn3)cc2)s1`, the IC50 is at most 1 µM.

`CNCc1ccc(NC(=O)c2ccc(C(=O)Nc3ccc(-n4cncn4)c(F)c3)s2)c(C)c1` showed a half-inhibitory concentration (IC50) of 1 to 40 µM. The figure for `Cn1nc(-c2cccs2)cc1NC(=O)c1ccc(C(=O)Nc2ccc(-n3cncn3)cc2)s1` is at least 40 µM; for `O=C(NCc1ccccc1)c1ccc(C(=O)Nc2ccc(-n3cncn3)cc2)s1` it is 1 to 40 µM.

For `O=C(NCCc1c[nH]cn1)c1ccc(C(=O)Nc2ccc(-n3cncn3)cc2)s1`, the IC50 is at least 40 µM. Regarding `CN(C)CCCNC(=O)c1ccc(C(=O)Nc2ccc(-n3cncn3)cc2)s1`, the IC50 is at least 40 µM. The figure for `COc1ccc(NC(=O)c2ccc(C(=O)Nc3ccc(-c4c(C)noc4C)cc3)s2)c(C)c1` is at least 40 µM; for `Cc1ccccc1NC(=O)c1ccc(C(=O)Nc2ccc(-n3cncn3)cc2)s1` it is at most 1 µM. The result for `COc1ccc(NC(=O)c2ccc(C(=O)Nc3ccc(OCCN(C)C)cc3)s2)c(C)c1` reads at least 40 µM. The figure for `O=C(Nc1ccc(-n2cncn2)c(F)c1)c1ccc(C(=O)Nc2ccccc2OCc2ccccc2)s1` is at least 40 µM; for `COc1ccc(NC(=O)c2ccc(C(=O)Nc3ccc(-n4cncn4)cc3)o2)c(C)c1` it is at most 1 µM; for `COc1ccc(NC(=O)c2ccc(C(=O)Nc3ccc(-c4nnn[nH]4)cc3)s2)c(C)c1` it is at least 40 µM. `COC[C@H](C)NC(=O)c1ccc(C(=O)Nc2ccc(-n3cncn3)cc2)s1` had an IC50 of at least 40 µM. The figure for `O=C(Nc1ccc(-n2cncn2)cc1)c1ccc(C(=O)NC2CCCC2)s1` is 1 to 40 µM; for `O=C(NC[C@H](O)c1ccccc1)c1ccc(C(=O)Nc2ccc(-n3cncn3)cc2)s1` it is at least 40 µM. As to `CN(C(=O)c1ccc(C(=O)Nc2ccc(-n3cncn3)cc2)s1)C1CCCCC1`, the IC50 is at most 1 µM. `COc1ccc(NC(=O)c2ccc(C(=O)Nc3ccc(-c4nc[nH]n4)c(F)c3)s2)c(C)c1` displayed a concentration for half-maximal inhibition (IC50) of at most 1 µM. The figure for `Cc1cc(NC(=O)c2ccc(C(=O)Nc3ccc(-n4cncn4)cc3)s2)n(C)n1` is 1 to 40 µM. The compound `O=C(Nc1ccc(-n2cncn2)cc1)c1ccc(C(=O)Nc2nc3ccccc3s2)s1` gave an IC50 of 1 to 40 µM. In turn, `Nc1ccc(CNC(=O)c2ccc(C(=O)Nc3ccc(-n4cncn4)cc3)s2)cn1` had an IC50 of at least 40 µM.

As for `O=C(NCc1ccc2c(c1)CCO2)c1ccc(C(=O)Nc2ccc(-n3cncn3)cc2)s1`, the IC50 is at least 40 µM.

As for `O=C(Nc1ccc(-n2cncn2)c(F)c1)c1ccc(C(=O)N2CCOCC2)o1`, the half-maximal inhibitory concentration (IC50) was at least 40 µM. The figure for `O=C(Nc1ccc(-n2cncn2)cc1)c1ccc(C(=O)Nc2cccc(-c3cnco3)c2)s1` is at least 40 µM; for `COc1ccc(Cl)cc1NC(=O)c1ccc(C(=O)Nc2ccc(-n3cncn3)cc2)s1` it is 1 to 40 µM; for `COC(=O)c1cc(OC)ccc1NC(=O)c1ccc(C(=O)Nc2ccc(-n3cncn3)cc2)s1` it is 1 to 40 µM. In the case of `CNC(=O)c1ccc(C(=O)Nc2ccc(-n3cncn3)c(F)c2)o1`, the IC50 is at least 40 µM.

`O=C(NC[C@H]1CCCO1)c1ccc(C(=O)Nc2ccc(-n3cncn3)cc2)s1` gave an IC50 of at least 40 µM.

For the compound `COc1ccc(NC(=O)c2ccc(C(=O)Nc3ccc(-c4csnn4)cc3)s2)c(C)c1`, the IC50 was at least 40 µM. The compound `COc1ccc(N(C)C(=O)c2ccc(C(=O)Nc3ccc(-n4cncn4)cc3)s2)c(C)c1` showed an IC50 of 1 to 40 µM.

In turn, `COc1ccc(NC(=O)c2ccc(C(=O)Nc3ccc(CN)cc3)s2)c(C)c1` yielded an IC50 of at least 40 µM. The figure for `Cc1cc(N2CCOCC2)ccc1NC(=O)c1ccc(C(=O)Nc2ccc(-n3cncn3)cc2)s1` is at most 1 µM; for `COc1ccc(C(=O)Nc2ccc(C(=O)Nc3ccc(-n4ccnc4)cc3)o2)c(C)c1` it is at least 40 µM.

As to `COc1ccc(NC(=O)c2ccc(C(=O)N3CCC(c4ccccn4)C3)s2)c(C)c1` (configuration not stated), the IC50 was 1 to 40 µM. The result for `COc1ccc(NC(=O)c2ccc(C(=O)Nc3ccc4nccnc4c3)s2)c(C)c1` reads at least 40 µM.

Turning to `COc1ccc(C(=O)Nc2ccc(C(=O)N3CCC(Oc4cnccn4)CC3)o2)cc1`, the IC50 is at least 40 µM. In the case of `COc1ccc(NC(=O)c2ccc(C(=O)Nc3ccc(C(N)=O)cc3)s2)c(C)c1`, the IC50 was at least 40 µM.

`O=C(Nc1ccc(-n2cncn2)cc1)c1ccc(C(=O)N2CCOCC2)s1` displayed an IC50 of at least 40 µM.

In turn, `O=C(Nc1ccc(-n2cncn2)c(F)c1)c1ccc(C(=O)Nc2ccccc2OC2CCCCC2)s1` yielded an IC50 of at least 40 µM.

Take `Cn1nc(C2CC2)cc1NC(=O)c1ccc(C(=O)Nc2ccc(-n3cncn3)cc2)s1`: the IC50 is 1 to 40 µM.

`CN1CCC(NC(=O)c2ccc(C(=O)Nc3ccc(-n4cncn4)c(F)c3)o2)CC1` displayed a concentration for half-maximal inhibition (IC50) of at least 40 µM. The result for `O=C(Nc1ccc(-n2cncn2)cc1)c1ccc(C(=O)N2CCCCC2)s1` reads at least 40 µM; that for `COc1ccc(C(=O)Nc2ccc(C(=O)Nc3ccc(-n4cncn4)cc3)o2)cc1`, at least 40 µM; that for `C[C@@H](NC(=O)c1ccc(C(=O)Nc2ccc(-n3cncn3)cc2)s1)C1CCCCC1`, at least 40 µM. For the compound `CCOc1ccccc1NC(=O)c1ccc(C(=O)Nc2ccc(-n3cncn3)c(F)c2)s1`, the IC50 is at least 40 µM. The result for `CC(=O)N1CCC(NC(=O)c2ccc(C(=O)Nc3ccc(-n4cncn4)cc3)s2)CC1` reads 1 to 40 µM; that for `O=C(Nc1ccc(-n2cncn2)cc1)c1ccc(C(=O)N2CCN(C3CCCC3)CC2)s1`, at least 40 µM.

For the compound `COc1ccc(NC(=O)c2ccc(C(=O)Nc3ccc4ncccc4c3)s2)c(C)c1`, the IC50 is at least 40 µM. The figure for `COc1ccc(C(=O)Nc2ccc(C(=O)Nc3ccc(-n4cncn4)c(F)c3)s2)c(C)c1` is at most 1 µM; for `O=C(Nc1ccc(-n2cncn2)cc1)c1ccc(C(=O)N[C@H]2CCc3ccccc32)s1` it is 1 to 40 µM. The result for `COc1ccc(NC(=O)c2ccc(C(=O)Nc3ccc4c(c3)OCO4)s2)c(C)c1` reads at least 40 µM. The figure for `CNCc1ccc(NC(=O)c2ccc(C(=O)Nc3ccc(-n4cncn4)cc3)s2)c(C)c1` is 1 to 40 µM.

Compound `O=C(Nc1ccncc1)c1ccc(C(=O)Nc2ccc(-n3cncn3)cc2)o1` displayed an IC50 of 1 to 40 µM. The figure for `O=C(Nc1ccc(-n2cncn2)cc1)c1ccc(C(=O)Nc2nccs2)s1` is at least 40 µM; for `CN1CCC(N(C)C(=O)c2ccc(C(=O)Nc3ccc(-n4cncn4)c(F)c3)o2)CC1` it is at least 40 µM. The result for `COc1ccc(C(=O)Nc2ccc(C(=O)Nc3ccc(-n4cncn4)cc3)o2)c(C)c1` reads at least 40 µM; that for `Cc1cc(CN2CCN(C)CC2)ccc1NC(=O)c1ccc(C(=O)Nc2ccc(-n3cncn3)c(F)c2)s1`, at most 1 µM; that for `COc1ccc(NC(=O)c2ccc(C(=O)N3CCC(Oc4cnccn4)CC3)s2)c(C)c1`, 1 to 40 µM.

As for `Cc1cc(N[C@H]2CCNC2)ccc1NC(=O)c1ccc(C(=O)Nc2ccc(-n3cncn3)cc2)s1`, the IC50 is at most 1 µM. Compound `COc1ccc(NC(=O)c2ccc(C(=O)Nc3ccc4scnc4c3)s2)c(C)c1` had an IC50 of at least 40 µM. `COc1ccc(C(=O)Nc2ccc(C(=O)N3CCC(c4ccccn4)C3)o2)c(C)c1` (configuration not stated) showed a concentration for half-maximal inhibition (IC50) of at least 40 µM.

Compound `O=C(Nc1ccc(-n2cncn2)c(F)c1)c1ccc(C(=O)Nc2ccccc2-c2ccccc2)s1` yielded an IC50 of 1 to 40 µM.
